Measurements: patent US8013156B2 (Exelixis, Inc., priority 2003, dated 2011)

What follows are compounds tested against Tie-2 (Homo sapiens, UniProt Q02763) (assay: Tie-2 tyrosine kinase activity assay (luciferase/luciferin ATP consumption with pEY substrate, or 33P-ATP incorporation)). Details: human enzyme Tie-2.
Tie-2, sequence (Q02763 23-1124): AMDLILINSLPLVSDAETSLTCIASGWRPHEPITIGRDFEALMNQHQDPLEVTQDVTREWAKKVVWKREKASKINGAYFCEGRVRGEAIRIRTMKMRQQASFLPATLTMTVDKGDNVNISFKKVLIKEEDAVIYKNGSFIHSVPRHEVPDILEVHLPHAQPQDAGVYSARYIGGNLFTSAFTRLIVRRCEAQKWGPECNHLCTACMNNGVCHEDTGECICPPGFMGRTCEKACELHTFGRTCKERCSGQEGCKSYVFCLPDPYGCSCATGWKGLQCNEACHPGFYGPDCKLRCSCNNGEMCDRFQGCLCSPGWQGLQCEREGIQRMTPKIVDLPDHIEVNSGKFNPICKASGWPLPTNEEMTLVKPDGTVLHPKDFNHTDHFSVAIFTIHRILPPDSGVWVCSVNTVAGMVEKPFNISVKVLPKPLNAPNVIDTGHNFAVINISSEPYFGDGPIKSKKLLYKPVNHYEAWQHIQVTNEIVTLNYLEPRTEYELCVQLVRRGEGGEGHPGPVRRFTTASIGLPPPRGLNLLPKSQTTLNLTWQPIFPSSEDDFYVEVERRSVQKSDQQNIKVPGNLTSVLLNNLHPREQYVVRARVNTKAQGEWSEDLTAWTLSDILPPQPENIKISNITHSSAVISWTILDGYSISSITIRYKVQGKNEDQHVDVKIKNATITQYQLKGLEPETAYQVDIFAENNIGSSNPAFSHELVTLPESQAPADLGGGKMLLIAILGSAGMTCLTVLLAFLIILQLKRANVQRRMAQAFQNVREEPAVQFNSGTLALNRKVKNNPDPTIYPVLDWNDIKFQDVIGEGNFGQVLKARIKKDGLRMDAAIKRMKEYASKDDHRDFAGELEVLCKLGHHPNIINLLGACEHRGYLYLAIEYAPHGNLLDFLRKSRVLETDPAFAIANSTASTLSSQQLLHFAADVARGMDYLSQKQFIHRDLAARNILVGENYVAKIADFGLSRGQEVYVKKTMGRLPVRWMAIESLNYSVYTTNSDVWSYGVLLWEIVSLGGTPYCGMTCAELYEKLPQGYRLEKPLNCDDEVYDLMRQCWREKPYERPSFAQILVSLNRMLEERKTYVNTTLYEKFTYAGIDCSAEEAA
Assay type: biochemical
Description: One measure of inhibition is Ki. […] The Ki for a compound is determined from the IC50 based on three assumptions. First, only one compound molecule binds to the enzyme and there is no cooperativity. […] Third, the enzymatic rate of the enzyme-inhibitor complex is zero. The rate data (i.e. compound concentration) are fitted to the equation:
[formula] where V is the observed rate, Vmax, is the rate of the free enzyme, I0 is the inhibitor concentration, E0 is the enzyme concentration, and Kd is the dissociation constant of the enzyme-inhibitor complex.
Tyrosine kinase activity is determined by 1) measurement of kinase-dependent ATP consumption by in the presence of a generic substrate such as […], tyrosine (pEY), by luciferase/luciferin-mediated chemiluminescence or; 2) incorporation of radioactive phosphate derived from ^33P-ATP into a generic substrate which has been adsorbed onto the well surface of polystyrene microtiter plates. Phosphorylated substrate products are quantified by scintillation spectrometry.
Inhibition is indicated as IC50 with following key: A=IC50 less than 50 nM, B=IC50 greater than 50 nM, but less than or equal to 1000 nM, C=IC50 greater than 1000 nM, but less than 10,000 nM, D=IC50 10,000 nM or greater, and “-”=no data available. The abbreviation for human enzyme, Tie-2, is defined as tyrosine kinase with immunoglobulin and EGF repeats.
`O=C(Nc1cc(C(F)(F)F)cc(C(F)(F)F)c1)NC1CCN(c2nccnc2OCc2ccncc2)C1` (stereo not shown) [Example 67, N-[3,5-bis(trifluoromethyl)phenyl]-N′-(1-{3-[(pyridin-4-ylmethyl)oxy]pyrazin-2-yl}pyrrolidin-3-yl)urea] gave an IC50 of 50 to 1000 nM. `CC1CN(c2nsnc2OCc2ccncc2)CC(C)N1C(=O)Nc1cc(C(F)(F)F)cc(C(F)(F)F)c1` (stereo not shown) [Example 68, N-[3,5-bis(trifluoromethyl)phenyl]-2,6-dimethyl-4-{4-[(pyridin-4-ylmethyl)oxy]-1,2,5-thiadiazol-3-yl}piperazine-1-carboxamide] was tested, and the IC50 was 50 to 1000 nM. In the case of `CC1CN(c2nsnc2OCc2ccncc2)CC(C)N1C(=O)Nc1cccc(C(F)(F)F)c1` (stereo not shown) [Example 69, 2,6-dimethyl-4-{4-[(pyridin-4-ylmethyl)oxy]-1,2,5-thiadiazol-3-yl}-N-[3-(trifluoromethyl)phenyl]piperazine-1-carboxamide], the IC50 is reported as 50 to 1000 nM. `CC1CN(C(=O)Nc2cc(C(F)(F)F)cc(C(F)(F)F)c2)CCN1c1nccnc1OCc1ccncc1` (stereo not shown) [Example 70, N-[3,5-bis(trifluoromethyl)phenyl]-3-methyl-4-{3-[(pyridin-4-ylmethyl)oxy]pyrazin-2-yl}piperazine-1-carboxamide] was tested, and the IC50 was < 50 nM. Compound `CC1CN(C(=O)Nc2cccc(C(F)(F)F)c2)CCN1c1nccnc1OCc1ccncc1` (stereo not shown) [Example 71, 3-methyl-4-{3-[(pyridin-4-ylmethyl)oxy]pyrazin-2-yl}-N-[3-(trifluoromethyl)phenyl]piperazine-1-carboxamide] has an IC50 of 50 to 1000 nM. In the case of `O=C(Nc1cc(C(F)(F)F)cc(C(F)(F)F)c1)N1CCN(c2ccccc2OCc2ccncc2)CC1` [Example 72, N-[3,5-bis(trifluoromethyl)phenyl]-4-{2-[(pyridin-4-ylmethyl)oxy]phenyl}piperazine-1-carboxamide], the IC50 is reported as < 50 nM. `O=C(Nc1cccc(C(F)(F)F)c1)N1CCN(c2ccccc2OCc2ccncc2)CC1` [Example 73, 4-{2-[(pyridin-4-ylmethyl)oxy]phenyl}-N-[3-(trifluoromethyl)phenyl]piperazine-1-carboxamide] was tested, and the IC50 was 50 to 1000 nM. With `CC1CN(c2nc3ccccc3nc2OCc2ccncc2)CCN1C(=O)Nc1cc(C(F)(F)F)cc(C(F)(F)F)c1` (stereo not shown) [Example 74, N-[3,5-bis(trifluoromethyl)phenyl]-2-methyl-4-{3-[(pyridin-4-ylmethyl)oxy]quinoxalin-2-yl}piperazine-1-carboxamide] the IC50 was 50 to 1000 nM. Work on `O=C(Nc1cc(C(F)(F)F)cc(C(F)(F)F)c1)N1CCCN(c2nccnc2OCc2ccncc2)CC1` [Example 75, N-[3,5-bis(trifluoromethyl)phenyl]-4-{3-[(pyridin-4-ylmethyl)oxy]pyrazin-2-yl}-1,4-diazepane-1-carboxamide] yielded an IC50 of 50 to 1000 nM. With `CC1CN(c2nc3ccccc3nc2OCc2ccncc2)CCN1C(=O)Nc1cccc(C(F)(F)F)c1` (stereo not shown) [Example 76, 2-methyl-4-{3-[(pyridin-4-ylmethyl)oxy]quinoxalin-2-yl}-N-[3-(trifluoromethyl)phenyl]piperazine-1-carboxamide] the IC50 was 50 to 1000 nM. Compound `O=C(Nc1cccc(C(F)(F)F)c1)N1CCCN(c2nccnc2OCc2ccncc2)CC1` [Example 77, 4-{3-[(pyridin-4-ylmethyl)oxy]pyrazin-2-yl}-N-[3-(trifluoromethyl)phenyl]-1,4-diazepane-1-carboxamide] has an IC50 of 50 to 1000 nM. `CC1CN(c2nccnc2OCc2ccncc2)C(C)CN1C(=O)Nc1cc(C(F)(F)F)cc(C(F)(F)F)c1` (stereo not shown) [Example 78, N-[3,5-bis(trifluoromethyl)phenyl]-2,5-dimethyl-4-{3-[(pyridin-4-ylmethyl)oxy]pyrazin-2-yl}piperazine-1-carboxamide] was tested, and the IC50 was < 50 nM. `CC1CN(c2nccnc2OCc2ccncc2)C(C)CN1C(=O)Nc1cccc(C(F)(F)F)c1` (stereo not shown) [Example 79, 2,5-dimethyl-4-{3-[(pyridin-4-ylmethyl)oxy]pyrazin-2-yl}-N-[3-(trifluoromethyl)phenyl]piperazine-1-carboxamide] showed an IC50 of 50 to 1000 nM.
